One assay concerns S. mutans. The conditions noted are these: Islam et al. 2008; compound isolated from M. alba; cited from earlier work.
The test system of assay [1] is Escherichia coli. Nature of the assay: Bacterial agglutination assay. It is filed as cell-based. As to conditions: for agglutination relative to the corresponding positive control: positive control mannose 0.05M. As to the method: (§1) Bacteria used in the assay were Escherichia coli, Salmonella tphimurium and Streptococcus mutans, from over night cultures. The bacteria were inoculated in the 100 ml flask with Luria medium. The bacteria were grown for 24 h at 37° C. After incubation, Agar Luria medium plates were inoculated. After 24 h suspensions of each strain were prepared in PBS medium (10^8 CFU/ml). Serial dilutions of the products to be tested, D-fagomine and D-fagomine tartrate (20 ppm, 200 ppm, 2000 ppm) were made. The dilutions were mixed with bacterial suspensions in a 1:1 ratio. After 90 min. at room temperature the suspensions were observed under optical microscope. They were compared with the control culture without any product added.
(§2) Bacteria used in the assay were Escherichia coli, Salmonella tphimurium, Streptococcus mutans, Lactobacillus casei and Bifidobacterium sp., from over night cultures. The bacteria were inoculated in the 100 ml flask with Luria medium. The bacteria were grown for 24 h at 37° C. After incubation, Agar Luria medium plates were inoculated. After 24 h suspensions of each strain were prepared in PBS medium (10^8 CFU/ml). Serial dilutions of the product to be tested, D-fagomine tartrate (10 ppm, 20 ppm, 2000 ppm) were made. The dilutions were mixed with bacterial suspensions in a 1:1 ratio. After 90 min. at room temperature the suspensions were observed under optical microscope. They were compared with the control culture without any product added. The Escherichia coli and Salmonella tphimurium were compared with a positive control culture (mannose 0.05M).

Another assay deals with Salmonella tphimurium. The assay can be described thus: Bacterial agglutination assay. It is filed as cell-based. The conditions noted are these: for agglutination relative to the corresponding positive control: positive control mannose 0.05M. As to the method:
as §1, §2

For assay [2], the system named is Streptococcus mutans. The assay can be described thus: Bacterial agglutination assay. Type of assay: cell-based. How it is done:
as §1, §2

The subject of the next assay is Bifidobacterium sp. The assay can be described thus: Bacterial agglutination assay. As to conditions: Example 2; 90 min room temperature. Type of assay: cell-based. As to the method:
as §2

For another assay, the system named is Lactobacillus casei. Nature of the assay: Bacterial agglutination assay. Type of assay: cell-based. The conditions noted are these: Example 2; 90 min room temperature. As to the method: as §2
For assay [3], the system named is Streptococcus mutans. Nature of the assay: Glass surface adherence assay. Type of assay: cell-based. The conditions noted are these: for G/MG (Glass/Mannose glass): vs mannose 0.05 M. How it is done:
Glass surface adherence assay was performed. The bacterium used in the assay was Streptococcus mutans from over night cultures (1 10^10 UCF/ml). The bacterium was grown for 18 h at 37° C. in PBS medium. The bacteria from the overnight culture (0.25 ml) were grown for 18 h at […] in a glass dish with the specific medium (0.5 ml). After the 18 h, 0.25 ml of D-fagomine (10 ppm, 20 ppm and 40 ppm) was added. In the control plate was added only PBS. After 90 min. the cells were transfered (0.5 ml) to a falcon tube, then were washed two times with PBS (0.5 ml each time). The wash of each bacteria was collected in a falcon tube and was kept at 4° C. The cells (100 μl) were seeded in the plates in TSA medium. The cells adhered were scrapped. In each well, it was added 0.5 ml of sterile PBS. The plaques with 100 μl were inoculated. The plaques were counted.

The subject of assay [4] is Escherichia coli. Nature of the assay: Adhesion to mucus (mucosal epitelial cells). Type of assay: cell-based. The conditions noted are these: for Bacteria in supernatant: duplicates 1 and 2. As to the method:
(§3) • Mucus: mucosal epitelial cells • Adhesion to mucus. Protocol Day 1
(§4) The bacteria was inoculated in the tube, with 3 ml Luria medium. The bacteria were grown for 24 h at 37° C. The tube was incubated overnight (1 10^8-1 10^9 UCF/ml).
(§5) The mucus (1 ml) is defrosted at room temperature. PBS medium (100 ml) was prepared. The defrosted mucus was centrifuged at 8000 rpm for 10 minutes. The mucus (1 ml) was transferred to an aliquot with sterile PBS (99 ml) (1:100). Each well is inoculated with 2.5 ml from the mixture and the plate is kept in the fridge (4° C.) overnight.
(§6) The plate was taken out from the fridge. 2 ml was extracted from each well. PBS (1 ml) was added, then was extracted, at the end there was 0.5 ml in the well.
(§7) The tubes that were grown overnight were diluted (1 10^7 UCF/ml).
(§8) The final volume in each well was: PBS 0.5 ml plus bacterial suspension 0.5 ml plus D-fagomine 0.5 ml (or PBS in control case).
(§9) Two plates were prepared (duplicated strains). Product concentration in the wells (10 ppm, 20 ppm, 40 pppm). Mannose concentration 0.05M (control well).
(§10) The wells were inoculated and the plates were incubated at 37° C. for 90 minutes.
(§11) After the 90 minutes, the supernatant of each well (10 μl) were observed under optical microscope.
(§12) It was added 1 ml of each well in eppendorfs. The eppendords were kept on the fridge. Two wash were made with PBS. The wells washed of the same strain were recoleted in a falcon tube and they were kept at 4° C. PBS (1 ml) was added in each well and the plates were inoculated with 100 μl of each tubes at the adecuated dilutions.
(§13) The plates were recounted

Another assay concerns Salmonella. Nature of the assay: Adhesion to mucus (mucosal epitelial cells). Type of assay: cell-based. How it is done:
as §3, §4, §5, §6, §7, §8, §9, §10, §11, §12, §13

The test system of another assay is Bifidobacterium. The assay can be described thus: Adhesion to mucus. It is filed as cell-based. How it is done:
(§14) • Adhesion to mucus. Protocol Day 1
(§15) The bacteria was inoculated in the tube with 3 ml Luria medium. The bacteria were grown for 24 h at 37° C. The tube was incubated overnight (1 10^7-1 10^8 UCF/ml).
(§16) The mucus (1 ml) is defrosted at room temperature. 100 ml of PBS medium was prepared. The defrosted mucus (1 ml) was centrifuged at 8000 rpm for 10 minutes. The mucus (1 ml) was transferred to an aliquot with sterile PBS (99 ml). Each well is inoculated with 2.5 ml from the mixture and the plate is kept in the fridge (4° C.) overnight.
(§17) The plate was taken out from the fridge an the wash was made. 2 ml was extracted from each well. PBS (1 ml) was added, then was extracted, at the end there was 0.5 ml in the well.
(§18) The tubes that were grown overnight, were diluted (1 10^7 UCF/ml).
(§19) The final volume in each well was: PBS 0.5 ml plus bacterial suspension 0.5 ml plus D-fagomine 0.5 ml (or PBS in control case). It was prepared 2 plates (duplicated strains). Product concentration in the wells (10 ppm, 20 ppm, 40 pppm). Mannose concentration 0.05M (control well). The wells were inoculated and the plates were incubated at 37° C. for 90 minutes. After the 90 minutes, the supernatant of each well (10 μl) were observed under optical microscope. It was added 1 ml of each well in eppendorfs. The eppendords were kept on the fridge. Two wash were made with PBS. The wells washes of the same strain were recoleted in a falcon tube and they were kept at 4° C. PBS (1 ml) was added in each well and the plates were inoculated with 100 μl of each tubes at the adecuated dilutions.
as §13

Assay [5] has as its system Lactobacillus acidophilus. The assay can be described thus: Adhesion to mucus. Type of assay: cell-based. How it is done:
as §14, §15, §16, §17, §18, §19, §13

For assay [6] the following is noted: Castillo et al., Organic Letter 2006; cited from earlier work.
The mark [7] stands for this setting: Example 1, 20 ppm, 200 ppm and 2000 ppm, 90 min room temperature, vs control culture.
[8] abbreviates: Example 2, 20 ppm and 200 ppm, 90 min room temperature.
[9] abbreviates: independently of the D-fagomine concentration (10, 20, 40 ppm).
Setting [10] is: D-fagomine 40 ppm, duplicates 1 and 2.

Structures are written as SMILES. Several values for one entry are separate records, joined by “and”; a condition that tells them apart may be missing. Identical values can stand only once.

For the compound `OC[C@H]1NC[C@H](O)[C@@H](O)[C@@H]1O` [1-deoxynojirimycin], in the assay with S. mutans, the “anti-microbial activity against S. mutans” value was “anti-microbial activity”.

`O=C(O)C(O)C(O)C(=O)O.OC[C@H]1NCC[C@@H](O)[C@@H]1O` [D-fagomine tartrate]: the “agglutination relative to the corresponding positive control” value with Escherichia coli [1] (20 ppm) was “about 60%”; in the assay with Escherichia coli [1] (200 ppm) it was “about 70%”; in the assay on Salmonella tphimurium (20 ppm), “about 60%”; with Salmonella tphimurium (200 ppm), “about 70%”. Further, the “agglutination of the cells (optical microscope)” value (shortened to “agglutination of the cells”) with Escherichia coli [1] (setting [7]) is “agglutinated”; in the assay with Escherichia coli [1] (Example 2, 10 ppm) it was “not at 10 ppm”; in the assay on Escherichia coli [1] (setting [8]), “agglutinated”; with Salmonella tphimurium (setting [7]), “agglutinated”; in the assay with Salmonella tphimurium (Example 2, 10 ppm) it was “not at 10 ppm”; with Salmonella tphimurium (setting [8]), “agglutinated”. For the same compound, the “agglutination of the cells” value with Streptococcus mutans [2] (setting [7]) was “agglutinated”; in the assay on Streptococcus mutans [2] (Example 2, 10 ppm), “not at 10 ppm”; in the assay on Streptococcus mutans [2] (setting [8]) it was “agglutinated”; with Bifidobacterium sp., “not agglutinated”; with Lactobacillus casei, “not agglutinated”.

On to `OC[C@H]1NCC[C@@H](O)[C@@H]1O` [D-fagomine, (2R, 3R, 4R)-2-hydroxymethylpiperidine-3,4-diol], for which the “agglutination of the cells” value in the assay with Escherichia coli [1] (setting [7]), with Salmonella tphimurium (setting [7]) and with Streptococcus mutans [2] (setting [7]) was “agglutinated” throughout. The “antiadherence activity in respect of the control” value in the assay on Streptococcus mutans [3] (10 ppm, 20 ppm and 40 ppm) is given as “has antiadherence activity”. Also, in the assay with Streptococcus mutans [3] (D-fagomine 10 ppm), the “PG/CG (Product glass/Control glass without product)” value came out at 1.60. Moreover, the “G/MG (Glass/Mannose glass)” value in the assay with Streptococcus mutans [3] (D-fagomine 10 ppm) is given as 1.60; in the assay with Streptococcus mutans [3] (D-fagomine 20 ppm), 1.35. In addition, the Bacteria in supernatant in the assay on Escherichia coli [4] (D-fagomine 10 ppm) was 94.5% and 95.1%; in the assay on Escherichia coli [4] (D-fagomine 20 ppm), 96.3% and 99.0%; in the assay with Escherichia coli [4] (D-fagomine 40 ppm), 99.2% and 98.6%; in the assay with Salmonella (D-fagomine 10 ppm, duplicates 1 and 2), 78.4% and 91.8%; in the assay with Salmonella (D-fagomine 20 ppm, duplicates 1 and 2), 98.2% and 95.5%; with Salmonella (setting [10]) it was 98.2% and 84.1%. The “agglutination of microorganisms with the mucus” value with Escherichia coli [4] (setting [9]) and in the assay on Salmonella (setting [9]) was “not agglutinated with the mucus” each time. Further, the Supernatant/mucus with Salmonella (setting [10]) came to 5.27 UCF/ml. Further, the “Product M/Control M” value was found to be 1.14 with Bifidobacterium (D-fagomine 20 ppm); 3.50 with Bifidobacterium (D-fagomine 40 ppm); 5.58 in [5] (D-fagomine 10 ppm); 5.58 in assay [5] (D-fagomine 20 ppm); 3.94 in [5] (D-fagomine 40 ppm). In addition, the “M/Manose M” value in assay [5] (D-fagomine 10 ppm) and in assay [5] (D-fagomine 20 ppm) was 1.31 in each case. In [6], the antimicrobial activity result is “do not show antimicrobial activity”.

The record behind these values is US9226517B2, “Use of iminocyclitols as inhibitors of bacterial adherence to epithelial cells” (Taihua Shouyue (Hong Kong) International Co Limited, priority 2010, dated 2016).
